# What was measured:
# rat heart tissue = experiment: GENECALLING differential gene expression analysis after dosing of serotonin modulating agents; type: in vivo, Sprague Dawley rats
# Protocol: Control animals received sterile water or canola oil. The animals were sacrificed 24 hours following the last dose. Liver tissue was dissected from the animals, and total RNA was recovered from the dissected tissue. cDNA was prepared and the resulting samples were processed through using GENECALLING™ differential expression analysis as described in U.S. Pat. No. 5,871,697 and in Shimkets et al., Nature Biotechnology 17:798-803 (1999). The contents of these patents and publications are incorporated herein by reference in their entirety.
# Thousands of gene fragments were initially found to be differentially expressed in rat heart tissue in response to serotonin modulating agents in. Genes fragments whose expression levels were modulated greater than ±1.5-fold were selected for further analysis.
# Column 6 of Table 1, entitled “Function”, lists the type of classification assigned for the protein, based on its function. The 210 single nucleic acid sequences identified herein, are referred to herein as CARDIOTOX 1-210.
# [1] = grouping used to generate the distinguishing gene profiles; cited from earlier work
structure (smiles),measurement,setting,value
CN1C[C@H](C(=O)N[C@]2(C)O[C@@]3(O)[C@@H]4CCCN4C(=O)[C@H](Cc4ccccc4)N3C2=O)C[C@@H]2c3cccc4[nH]cc(c34)C[C@H]21 [dihydroergotamine],"Effects on Transcription Level: Novel gene fragment, 535 bp, 90% SI to mouse slow/cardiac troponin C [M29793]",rat heart tissue; CARDIOTOX 71,−1.7 fold
same,"Effects on Transcription Level: Novel gene fragment, 445 bp, 85% SI to human skeletal muscle alpha 2 actinin [M86406]",rat heart tissue; CARDIOTOX 72,−2.0 fold
same,"Effects on Transcription Level: Novel gene fragment, 246 bp, 89% SI to mouse ponsin-1 [AF078667]",rat heart tissue; CARDIOTOX 73,−3.5 fold
same,"Effects on Transcription Level: Novel gene fragment, 126 bp, 77% SI to human DNA sequence from cosmid V311G7, between markers DXS366 and DXS87 on chromosome X [Z69304]",rat heart tissue; CARDIOTOX 74,+1.8 fold
same,"Effects on Transcription Level: Novel gene fragment, 370 bp",rat heart tissue; CARDIOTOX 75,−2.0 fold
same,"Effects on Transcription Level: Novel gene fragment, 337 bp, 78% SI to novel human protein AHNAK [M80899]",rat heart tissue; CARDIOTOX 76,−4.1 fold
same,"Effects on Transcription Level: Novel gene fragment, 100 bp, 93% SI to human KIAA0750 protein [ABO18293]",rat heart tissue; CARDIOTOX 77,−9.3 fold
same,"Effects on Transcription Level: Novel gene fragment, 44 bp",rat heart tissue; CARDIOTOX 78,−9.0 fold
same,"Effects on Transcription Level: Novel gene fragment, 698 bp, 93% SI to mouse plenty-of-prolines-101 [AF062655]",rat heart tissue; CARDIOTOX 79,−1.9 fold
same,"Effects on Transcription Level: Novel gene fragment, 660 bp, 84% SI to mouse membrane protein TMS-2 [AF181685]",rat heart tissue; CARDIOTOX 80,−3.0 fold
same,"Effects on Transcription Level: Novel gene fragment, 115 bp",rat heart tissue; CARDIOTOX 81,−7.5 fold
same,"Effects on Transcription Level: Novel gene fragment, 294 bp, 95% SI to mouse Ndr1 related protein Ndr2 [AB033921]",rat heart tissue; CARDIOTOX 82,−3.3 fold
same,"Effects on Transcription Level: Novel gene fragment, 198 bp",rat heart tissue; CARDIOTOX 83,+2.6 fold
same,"Effects on Transcription Level: Novel gene fragment, 730 bp, 86% SI to mouse E800 [Y10968]",rat heart tissue; CARDIOTOX 84,−1.7 fold
same,"Effects on Transcription Level: Novel gene fragment, 294 bp, 98% SI to cysteine conjugate beta-lyase [S61960]",rat heart tissue; CARDIOTOX 85,−1.7 fold
same,Effects on Transcription Level: Aconitase,"rat heart tissue; CARDIOTOX 86, GenBank A1243266",−3.2 fold
same,Effects on Transcription Level: Ribosomal protein L7,"rat heart tissue; CARDIOTOX 87, GenBank M17422",+2.7 fold
same,Effects on Transcription Level: Ribosomal protein L9,"rat heart tissue; CARDIOTOX 88, GenBank X51706",+5.0 fold
same,Effects on Transcription Level: Ribosomal protein L12,"rat heart tissue; CARDIOTOX 89, GenBank X53504",−2.0 fold
same,"Effects on Transcription Level: 18S, 5.8S, and 28S ribosomal RNA's","rat heart tissue; CARDIOTOX 90, GenBank V01270",+2.6 fold
same,Effects on Transcription Level: Pyruvate dehydrogenase kinase 2 (PDK2),"rat heart tissue; CARDIOTOX 91, GenBank U10357",−5.8 fold
same,Effects on Transcription Level: D-Binding Protein (DBP),"rat heart tissue; CARDIOTOX 92, GenBank J03179",−1.5 fold
same,Effects on Transcription Level: Lipoprotein lipase,"rat heart tissue; CARDIOTOX 93, GenBank L03294",−2.2 fold
same,Effects on Transcription Level: Non-neuronal enolase,"rat heart tissue; CARDIOTOX 94, GenBank X02610",+3.1 fold
same,Effects on Transcription Level: Glycogen phosphorylase (muscle isozyme),"rat heart tissue; CARDIOTOX 95, GenBank L10669",−2.7 fold
same,Effects on Transcription Level: Cytochrome c oxidase subunit IV,"rat heart tissue; CARDIOTOX 96, GenBank X14209",+4.1 fold
same,Effects on Transcription Level: Alpha-globin,"rat heart tissue; CARDIOTOX 97, GenBank M17083",+3.9 fold
same,Effects on Transcription Level: Beta-globin,"rat heart tissue; CARDIOTOX 98, GenBank X06701",+3.3 fold
same,Effects on Transcription Level: Myoglobin,"rat heart tissue; CARDIOTOX 99, GenBank AF197916",+3.9 fold
same,Effects on Transcription Level: Titin,"rat heart tissue; CARDIOTOX 100, GenBank L38717",−5.4 fold
same,Effects on Transcription Level: Skeletal muscle actin,"rat heart tissue; CARDIOTOX 101, GenBank V01218",−14.3 fold
same,Effects on Transcription Level: Myosin light chain 2 (MLC2),"rat heart tissue; CARDIOTOX 102, GenBank M11851",−1.5 fold
same,Effects on Transcription Level: Alpha cardiac myosin heavy chain,"rat heart tissue; CARDIOTOX 103, GenBank X15938",−2.5 fold
same,Effects on Transcription Level: Troponin I,"rat heart tissue; CARDIOTOX 104, GenBank U77354",+1.5 fold
same,Effects on Transcription Level: Cardiac calsequestrin,"rat heart tissue; CARDIOTOX 105, GenBank AF001334",−2.1 fold
same,Effects on Transcription Level: Sulfated glycoprotein 2,"rat heart tissue; CARDIOTOX 106, GenBank M16975",−1.6 fold
same,Effects on Transcription Level: Aquaporin 7,"rat heart tissue; CARDIOTOX 107, GenBank AB000507",+1.7 fold
same,Effects on Transcription Level: Carnitine/acylcarnitine carrier protein,"rat heart tissue; CARDIOTOX 108, GenBank X97831",−2.8 fold
same,Effects on Transcription Level: Glu-Pro Dipeptide Repeat,"rat heart tissue; CARDIOTOX 109, GenBank U40628",−5.1 fold
same,Effects on Transcription Level: Cystatin beta,"rat heart tissue; CARDIOTOX 110, GenBank X54737",+2.6 fold
same,"Effects on Transcription Level: Novel gene fragment, 593 bp, 90% SI to human calcineurin B-like protein [Z08983]",rat heart tissue; CARDIOTOX 111,+1.7 fold
same,"Effects on Transcription Level: Novel gene fragment, 179 bp, 88% SI to human titin [X90568]",rat heart tissue; CARDIOTOX 112,+6.0 fold
same,"Effects on Transcription Level: Novel gene fragment, 700 bp, 91% SI to mouse periplakin (PPL) [AF116523]",rat heart tissue; CARDIOTOX 113,+1.7 fold
same,Effects on Transcription Level: Long chain acyl-CoA dehydrogenase (LCAD),"rat heart tissue; CARDIOTOX 114, GenBank J05029",+1.5 fold
same,Effects on Transcription Level: Sulfated glycoprotein 1 (SGP-1),"rat heart tissue; CARDIOTOX 115, GenBank M19936",−1.7 fold
same,Effects on Transcription Level: Catalase,"rat heart tissue; CARDIOTOX 116, GenBank M11670",+1.6 fold
same,Effects on Transcription Level: Alpha-fodrin (A2A) (Nonerythroid spectrin alpha subunit),"rat heart tissue; CARDIOTOX 117, GenBank AF084186",−1.5 fold
same,Effects on Transcription Level: Cardiac specific sodium channel alpha-subunit,"rat heart tissue; CARDIOTOX 118, GenBank M27902",−1.6 fold
same,Effects on Transcription Level: Glu-Pro Dipeptide Repeat,"rat heart tissue; CARDIOTOX 119, GenBank U40628",+1.9 fold
same,"Effects on Transcription Level: Novel gene fragment, 200 bp, 64% SI to human KIAA0733 protein [AB018316]",rat heart tissue; CARDIOTOX 120,−1.2 fold
same,Effects on Transcription Level: RNA polymerase II transcription factor SIII (p18 subunit),"rat heart tissue; CARDIOTOX 121, GenBank L42855",+1.4 fold
same,Effects on Transcription Level: Protein-tyrosine phosphalase (LRP),"rat heart tissue; CARDIOTOX 122, GenBank L01702",+1.4 fold
same,Effects on Transcription Level: Skeletal muscle selenoprotein W (SelW),"rat heart tissue; CARDIOTOX 123, GenBank U25264",−1.4 fold
same,Effects on Transcription Level: Sarcoplasmic reticulum 2+-Ca-ATPase,"rat heart tissue; CARDIOTOX 124, GenBank X15635",−1.2 fold
same,Effects on Transcription Level: Ribosomal protein S7,"rat heart tissue; CARDIOTOX 125, GenBank X53377",+1.7 fold
same,Effects on Transcription Level: Ribophorin I,"rat heart tissue; CARDIOTOX 126, GenBank X05300",+1.5 fold
same,Effects on Transcription Level: Beta cardiac myosin heavy chain,"rat heart tissue; CARDIOTOX 127, GenBank X15939",−1.6 fold
same,Effects on Transcription Level: ADP-ribosylation factor 1,"rat heart tissue; CARDIOTOX 128, GenBank L12380",+1.3 fold
same,Effects on Transcription Level: Laminin receptor,"rat heart tissue; CARDIOTOX 129, GenBank U04942",+1.1 fold
same,"Effects on Transcription Level: Novel gene fragment, 206 bp, 89% SI to human seryl-tRNA synthetase [X91257]",rat heart tissue; CARDIOTOX 130,+2.0 fold
same,Effects on Transcription Level: Annexin VI,"rat heart tissue; CARDIOTOX 131, GenBank X86086",+3.5 fold
same,"Effects on Transcription Level: Novel gene fragment, 325 bp, 90% SI to mouse N-RAP [U76618]",rat heart tissue; CARDIOTOX 132,+1.4 fold
same,"Effects on Transcription Level: Novel gene fragment, 61 bp (CARDIOTOX 134)",rat heart tissue; LD10 dose for three days,−1.1 fold
same,"Effects on Transcription Level: Novel gene fragment, 337 bp (CARDIOTOX 133)",rat heart tissue; LD10 dose for three days,−1.2 fold
same,"Effects on Transcription Level: Novel gene fragment, 378 bp, 88% SI to human coatomer protein (COPA) [U24105] (CARDIOTOX 138)",rat heart tissue; LD10 dose for three days,+1.2 fold
same,Effects on Transcription Level: Long chain 3-ketoacyl-CoA thiolase (CARDIOTOX 136),"rat heart tissue; LD10 dose for three days, GenBank D16479",−1.2 fold
same,Effects on Transcription Level: TATA-binding protein interacting protein 120 (TIP120) (CARDIOTOX 135),"rat heart tissue; LD10 dose for three days, GenBank D87671",+1.1 fold
same,Effects on Transcription Level: Serine protease (CARDIOTOX 139),"rat heart tissue; LD10 dose for three days, GenBank D88250",+1.2 fold
same,Effects on Transcription Level: Thymosin beta-4 (CARDIOTOX 137),"rat heart tissue; LD10 dose for three days, GenBank M34043",+1.6 fold
same,classification as cardiotoxic or noncardiotoxic serotonin modulating agent,[1],cardiotoxic

# — patent US20040005537A1, “Method of identifying toxic agents using differential gene expression” (priority 2000, published 2004)
